Assays:
mould = experiment: Treatment of pineapples: mould incidence on the pineapple rinds after storage (Example 11); format: in vivo; settings: 200 ppm natamycin, 250 ppm fludioxonil or both, 28 days of storage (21 days at 7.5° C., 7 days at 18 to 20° C.)
Text: In this experiment pineapples were selected from a packing plant located in Costa Rica. These pineapples were selected based on uniformity in color and size. Furthermore, they were free from visual mold growth or any other visual damage caused by plagues or diseases.
The surface of the pineapples was first disinfected by immersion of the fruits for one minute in a solution comprising 150 ppm sodium hypochlorite. Next, the fruits were dried and thereafter the antimicrobial compositions were applied on the fruits using a modified watering can. This shower, to simulate the wax cascade used in pineapple packing plants, covered the rind of the fruits with a thin film of wax. The crown of the pineapple was not treated. […]
After 28 days, the mould incidence on the pineapple rinds was assessed using the following method. The number of pineapples with visual mould incidence on the rind per total of 40 pineapples was counted for all compositions. Subsequently, the antifungal activity (in %) of the individual and combined active ingredients (compositions B, C and D) was determined by calculating the reduction in mould incidence observed on the pineapple rind compared to composition A. The observed antifungal activity of composition D was compared to the expected antifungal activity of composition D according to the Colby method (Colby, 1967) as described in Example 5.

Botrytis cinerea = experiment: Treatment of sweet peppers: wounded, inoculated with Botrytis cinerea, wound treated with antifungal composition (Example 10); format: in vivo; settings: 400 ppm natamycin, 600 ppm fenpiclonil or both, 20° C.
Procedure: Ten fresh, organic sweet peppers were used per treatment. The peel of each sweet pepper was wounded once using a cork borer according to the method described by de Lapeyre de Bellaire and Dubois (1987). Subsequently, each wound was inoculated with 10 μl of a Botrytis cinerea suspension containing 1×10^5 of spores/ml. After incubation for 3 hours at 20° C., each wound and the skin area of 0.5 cm around the wound was treated with in total 75 μl of a freshly prepared aqueous antifungal composition comprising either 400 ppm natamycin (DSM Food Specialties, Delft, The Netherlands), 600 ppm fenpiclonil or both. Each antifungal composition also comprised 3.2% (w/w) beeswax, 0.8% (w/w) glycerol, 0.7% (w/w) polyoxyethylene sorbitan monostearate (Tween 60), 0.2% (w/w) polyoxyethylene sorbitan monooleate (Tween 80), 0.05% (w/w) methylhydroxyethyl-cellulose (MHEC), 0.03% (w/w) anti-foaming agent, 0.02% (w/w) xanthan gum, 0.02% (w/w) citric acid, 0.01% (w/w) lactic acid and 0.01% potassium sorbate. A composition without natamycin or fenpiclonil was used as control.
The treated sweet peppers were incubated in a closed box in the dark at 20° C. and assessed on mould growth during incubation. The antifungal activity (in %) of the individual and combined active ingredients was determined by calculating the reduction in mould growth observed on the sweet peppers treated with the antifungal composition in comparison to the mould growth on the sweet peppers treated with the control composition according to the Colby method (Colby, 1967) as described in Example 5.

SMILES | Observed antifungal activity O (%) (mould) | Observed antifungal activity O (%) (Botrytis cinerea; 47 days) | Observed antifungal activity O (%) (Botrytis cinerea; 48 days) | Observed antifungal activity O (%) (Botrytis cinerea; 49 days) | Observed antifungal activity O (%) (Botrytis cinerea; 50 days)
N#Cc1c[nH]cc1-c1cccc2c1OC(F)(F)O2 [Fludioxonil, fludioxonil] | 90 | – | – | – | –
C[C@@H]1C/C=C/C=C/C=C/C=C/[C@H](O[C@@H]2O[C@H](C)[C@@H](O)[C@H](N)[C@@H]2O)C[C@@H]2O[C@](O)(C[C@@H](O)C[C@H]3O[C@@H]3/C=C/C(=O)O1)C[C@H](O)[C@H]2C(=O)O [Natamycin, natamycin] | 35 | 15 | 6 | 4 | 3

Reference: US9468212B2, “Antifungal compositions” (DSM IP ASSETS B.V., priority 2013, dated 2016)
